Consider 27 compounds from PubChem BioAssay (NCI).

Holding throughout (assay): DTP human tumour cell line panel, 48 h
The subject of assay [1] is MCF7 breast.
Assay [2] concerns SK-MEL-5 melanoma.
Assay [3] has as its system NCI-H226 lung.
The test system of assay [4] is A498 renal.
Assay [5] relates to A549 NSCLC.
Assay [6] concerns RXF 393 renal.
For assay [7], the system named is CAKI-1 renal.
Assay [8] concerns IGROV1 ovarian.
The subject of assay [9] is DU-145 prostate.
Assay [10] concerns HL-60(TB) leukemia.

SMILES strings stand for the structures.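 Compound exposure: 48 hours, 5 concentrations, 96-well plates. GI50 marks 50% less growth. The concentration for full growth arrest is given as TGI.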

Turning to `CC(O)C1(CNc2cc(Cl)nc(N)n2)CCCCC1` (stereo unspecified), the total growth inhibition concentration (TGI) in assay [1], in [2], in assay [3], in [4], in [5] and in [6] was more than 100 µM throughout. The TGI in assay [7], in [8], in assay [9] and in [10] was more than 100 µM each time.
With `CC1CN=C(NS(=O)(=O)c2cc(C(=O)Nc3ccc(Cl)cc3)c(Cl)cc2S)NN1` (stereo unspecified), the TGI in [1] is more than 100 µM; in assay [2] it was 28.8 µM; in assay [3], 68.8 µM; in assay [4] it was 37.1 µM; in [5] it was more than 100 µM; in assay [7], more than 100 µM. Further, the TGI in [8], in assay [9] and in assay [10] was more than 100 µM each time.
`NNC(=O)CC(=O)Nc1cccc(Cl)c1`: the TGI in [1], in assay [2], in [3], in assay [4], in assay [5] and in assay [6] was more than 100 µM in each case. For the same compound, the TGI in [7], in [8], in assay [9] and in [10] was more than 100 µM each time.
For `CCNC(=O)c1cc(Cl)ccc1NC(=O)C12CC3CC(CC(C3)C1)C2`, the TGI is more than 100 µM in assay [1]; 76.1 µM in [2]; more than 100 µM in assay [3]; more than 100 µM in assay [4]; more than 100 µM in assay [5]; 43.9 µM in assay [6]. The TGI in assay [7] was more than 100 µM; in assay [8] it was more than 100 µM; in assay [9] it was 88.9 µM; in assay [10], more than 100 µM.
For `OC1c2ccccc2CCC1CN1CCN(CCOC(c2ccc(F)cc2)c2ccc(F)cc2)CC1` (stereo unspecified), the TGI in [1] is 30.8 µM; in assay [2] it was 16.5 µM; in assay [3], 28.3 µM; in [4], 26.9 µM; in assay [5], more than 100 µM; in [6], 19.3 µM. The TGI was more than 100 µM in [7], 61.9 µM in assay [8] and 61.4 µM in assay [9].
`N#CC1(C#N)NC(c2ccccc2)C(C#N)(C#N)NC1c1ccccc1` (stereo unspecified): the TGI in assay [1], in assay [2], in [3], in assay [4], in assay [5] and in assay [6] was more than 100 µM throughout. For the same compound, the TGI in assay [7], in [8], in assay [9] and in assay [10] was more than 100 µM in each case.
`S=C1NC2=C(COc3ccccc32)C(c2ccc(Cl)cc2)N1` (stereo unspecified): the total growth inhibition concentration (TGI) stood at 38.4 µM in assay [1]; 30.5 µM in [2]; 36 µM in [3]; 39.1 µM in assay [4]; 48.2 µM in assay [5]; 37.4 µM in assay [6]. The TGI in assay [8] was determined as 31.6 µM; in assay [9] it was 35.7 µM; in assay [10], 43.3 µM.
As for `c1cc(-c2ccc(-c3ccc(-c4ccc(-c5ccncc5)o4)cc3)o2)ccn1`, the TGI in [1] is 38.7 µM; in [2] it was 26 µM; in [3], 56 µM; in [4], more than 100 µM; in [5], 35.7 µM; in assay [6], more than 100 µM. Besides, the TGI came to 46.7 µM in [7], 35.8 µM in assay [8], 28.2 µM in assay [9] and 43.5 µM in assay [10].
For `CCOC(=O)c1cc(-n2nnc3ccccc32)cn1C`, the TGI in [1], in [2], in assay [3], in [4], in assay [5] and in [6] was more than 10 µM each time. In addition, the TGI in [7], in assay [8], in [9] and in [10] was more than 10 µM each time.
Regarding `COC(=O)C1CCN(C(=O)OC(C)(C)C)CC1`, the TGI in assay [1], in assay [2], in assay [4], in [5], in assay [7] and in assay [8] was more than 100 µM throughout. The TGI in assay [9] and in assay [10] was more than 100 µM in each case.
As for `C=CC(O)(CBr)CCC(Br)C(=C)C` (stereo unspecified), the TGI in assay [1], in [2], in assay [3], in [4], in assay [5] and in assay [6] was more than 10 µM in each case. Further, the TGI in assay [7], in assay [8], in assay [9] and in assay [10] was more than 10 µM in each case.
`CC1(c2sccc2Cl)CC(c2sccc2Cl)=C(C#N)C(=C(C#N)C#N)N1` (stereo unspecified): the TGI in [1] came out at 48.5 µM; in assay [2] it was 33.3 µM; in assay [4], 33.3 µM; in [5] it was 75.6 µM; in assay [6], 42.4 µM; in [7], 36.1 µM. Also, the TGI is 42.4 µM in assay [8], 31.2 µM in assay [9] and more than 100 µM in assay [10].
Consider `COC(=O)/C=C\C(C#N)(C#N)N=Cc1cccc(OC)c1`, for which the TGI in assay [1] was 38.9 µM; in assay [2], 31.4 µM; in [3], 28.7 µM; in [4], 34.7 µM; in assay [5] it was 35.1 µM; in assay [6] it was 9.62 µM. The TGI in [7] is 5.17 µM; in [8], 24 µM; in assay [9], 27.7 µM; in assay [10] it was more than 100 µM.
Consider `Cc1nc(SCC(=O)Nc2ccc(Cl)cc2)c2sc(=S)n(-c3ccccc3)c2n1`, for which the TGI in assay [1], in assay [2], in assay [3], in assay [4], in assay [5] and in assay [6] was more than 10 µM each time. In addition, the TGI in assay [7], in assay [8], in assay [9] and in assay [10] was more than 10 µM each time.
Regarding `CN(CC(=O)O)c1ncc2c(n1)C=CCC2`, the TGI in [1], in assay [2], in [3], in assay [4], in assay [5] and in assay [6] was more than 100 µM throughout. For the same compound, the total growth inhibition concentration (TGI) in assay [7], in assay [8], in [9] and in assay [10] was more than 100 µM each time.
For the compound `NC(N)=NS(=O)(=O)c1ccc(N/N=C2/CCOC2=O)cc1`, the concentration for total growth inhibition (TGI) in assay [1], in assay [2], in [3], in assay [4], in assay [5] and in [6] was more than 100 µM in each case. Also, the TGI in assay [7], in assay [8], in assay [9] and in [10] was more than 100 µM in each case.
Turning to `COc1cc(C(=O)O[C@H](C(=O)NCCCNC(=O)[C@@H](OC(=O)c2cc(OC)cc3c(C)cccc23)[C@]2(C)CO2)[C@]2(C)CO2)c2cccc(C)c2c1`, the GI50 in assay [1] was less than 0.01 µM; in assay [2] it was less than 0.0154 µM; in assay [3] it was 0.151 µM; in [5], 0.128 µM; in assay [6], less than 10 nM; in assay [7], 0.033 µM. The GI50 in [9] and in assay [10] was less than 0.01 µM throughout. Further, the TGI in [1] is 0.219 µM; in [2] it was 0.178 µM; in assay [3], 0.762 µM; in [4], 1.83 µM; in assay [5], 0.718 µM; in [6], less than 0.01 µM. For the same compound, the TGI is 0.205 µM in assay [7], less than 0.01 µM in assay [9] and less than 0.01 µM in [10].
As for `CCOC(=O)/C=C(\C(=O)OCC)n1ccc(=O)n(Cc2cnnn2CCCCOC(C)=O)c1=O`, the TGI was 18.8 µM in assay [1]; 30.2 µM in [2]; 39.4 µM in assay [3]; 37.6 µM in assay [4]; 40.2 µM in assay [5]; 2.16 µM in assay [6]. Further, the total growth inhibition concentration (TGI) in assay [7] came out at 6.8 µM; in assay [8] it was 28.4 µM; in assay [9] it was 36.1 µM.
Turning to `CSC1NC(c2ccccc2)=C(C#N)C(=O)N1C1OCC(OC(C)=O)C(OC(C)=O)C1OC(C)=O` (stereo unspecified), the TGI in [1], in assay [2], in [3], in [4], in [5] and in assay [6] was more than 100 µM throughout. For the same compound, the concentration for total growth inhibition (TGI) in [7], in assay [8] and in assay [9] was more than 100 µM in each case.
For the compound `COc1cccc(C23CCCC(C2)NCC3Br)c1OC` (stereo unspecified), the TGI in [1] is 57.3 µM; in assay [2] it was 13.1 µM; in assay [3], 5.37 µM; in [4], 31.3 µM; in [5], more than 100 µM; in assay [6], more than 100 µM. Further, the TGI in [7], in assay [8] and in [9] was more than 100 µM each time.
For the compound `COC(=O)C1CCC(=O)N1C(c1cc(OC)c(OC)c(OC)c1)c1cc(OC)c(OC)c(OC)c1` (stereo unspecified), the TGI in assay [1], in [4], in [5], in assay [8], in [9] and in assay [10] was more than 100 µM throughout.
`COc1ccc2c3c(Nc4cccc(/C(C)=N\O)c4)[nH]c4ccccc4c-3c(N=O)c2c1`: the GI50 in [1] was 73.9 µM; in assay [2], 29.8 µM; in assay [3], 54 µM; in assay [4] it was 78.1 µM; in assay [5] it was 27.6 µM; in [7], 29.3 µM. In addition, the GI50 was 26.1 µM in [8], 16 µM in assay [9] and 16.9 µM in [10]. Besides, the TGI was more than 100 µM in assay [1]; more than 100 µM in [2]; more than 100 µM in assay [3]; more than 100 µM in [4]; more than 100 µM in [5]; 54.8 µM in assay [7]. In addition, the figures for the TGI in [8], in [9] and in assay [10] were 84.5 µM, 75.1 µM and more than 100 µM, respectively.
Consider `CCOC(=O)c1nc2ccc(C(F)(F)F)cc2nc1Nc1cc(OC)c(OC)c(OC)c1`, for which the TGI in assay [1], in [2], in assay [4], in assay [5], in [6] and in [8] was more than 100 µM each time. For the same compound, the TGI in assay [9] and in assay [10] was more than 100 µM throughout.
`COc1ccc(/C(C)=N/NC(=O)c2ccncc2)c(OC)c1`: the TGI in [1], in assay [2], in assay [3], in assay [4], in [5] and in [7] was more than 10 µM in each case. In addition, the TGI in assay [8], in assay [9] and in [10] was more than 10 µM throughout.
As for `COc1cc(C2C3=C(COC3=O)Oc3cc4c(cc32)OCO4)ccc1O` (stereo unspecified), the TGI in [1] is more than 100 µM; in assay [2], 0.736 µM; in assay [3], more than 100 µM; in [4] it was more than 25.7 µM; in assay [5], more than 100 µM; in assay [6] it was more than 100 µM. The TGI is 0.438 µM in assay [7], more than 100 µM in [8] and more than 100 µM in assay [9].
On to `CCOC(=O)NN(C(=O)OCC)C(C(=O)C1=CCCCC1)N(NC(=O)OCC)C(=O)OCC`, for which the TGI in assay [1], in assay [2], in [3], in [4], in [5] and in [6] was more than 100 µM each time. Besides, the TGI in [7], in assay [8] and in [9] was more than 100 µM in each case.
`COc1cc(C)c(/C=C2/N=C(c3ccccc3)OC2=O)c([N+](=O)[O-])c1OC`: the TGI in assay [1], in assay [3], in assay [4], in [5], in assay [6] and in [7] was more than 100 µM each time. The TGI in assay [8], in assay [9] and in assay [10] was more than 100 µM throughout.
